Results published in US20160296499A1, “Spiroindoline Antiparasitic Derivatives” (ZOETIS SERVICES LLC, priority 2013, published 2016).
Where two headings read alike, the source gives them in different places.

Assays:
[1] = target: T1, bovine vesicular acetylcholine transporter (VAChT) (Bos taurus, UniProt E1BK36); test: Radioligand Binding Assay; settings: for Ki: Bovine binding Ki, CHO-K1 membranes with recombinant bovine VAChT, [3H]Compound X6 0.3 nM
T1 sequence (E1BK36 1-524): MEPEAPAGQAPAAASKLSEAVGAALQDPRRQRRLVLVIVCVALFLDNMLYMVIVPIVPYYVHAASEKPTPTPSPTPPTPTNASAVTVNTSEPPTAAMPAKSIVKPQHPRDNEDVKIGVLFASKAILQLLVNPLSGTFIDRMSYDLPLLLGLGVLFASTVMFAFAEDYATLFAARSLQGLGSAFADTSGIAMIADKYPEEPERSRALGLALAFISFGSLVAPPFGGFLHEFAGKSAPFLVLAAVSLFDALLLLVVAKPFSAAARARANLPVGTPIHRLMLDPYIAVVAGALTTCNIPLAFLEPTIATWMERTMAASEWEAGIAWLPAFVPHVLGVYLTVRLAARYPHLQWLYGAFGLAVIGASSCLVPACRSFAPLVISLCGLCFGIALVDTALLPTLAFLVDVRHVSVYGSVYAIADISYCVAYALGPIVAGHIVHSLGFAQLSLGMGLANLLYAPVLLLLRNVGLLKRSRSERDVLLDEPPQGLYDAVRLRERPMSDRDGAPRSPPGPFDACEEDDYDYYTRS

Haemonchus contortus L3 = test: Haemonchus contortus, Larvae Stage 3 (HcL3) In Vitro Assay; settings: Haemonchus contortus
[2] = tested on: Dirofilaria immitis microfilariae; test: Dirofilaria immitis, Microfilariae (DiMF) In Vitro Assay; settings: Dirofilaria immitis
[3] = 96 h, read-out: HcL3 MEC, Minimal Effective Concentration whereby worm motility is inhibited by approximately 70%, 37° C., tested 0.001-100 μM
[4] = 72 h, read-out: Di MF, MEC, decrease in microfilariae motility by visual assessment, curve starting at 100 μM
[5] = 96 hours, 37° C., read-out: HcL3 MEC

| Compound | Ki [1] [nM] | minimal effective concentration (Haemonchus contortus L3; [3]) [µM] | minimal effective concentration [2, 4] [µM] | Kd [1] [nM] | minimal effective concentration (Haemonchus contortus L3; [5]) [µM] | minimal effective concentration ([2]; 72 hours, read-out: Di MF) [µM] |
| --- | --- | --- | --- | --- | --- | --- |
| O=C(NCC1CCCO1)N1CC2(CCN(C/C=C/c3ccc(Cl)c(Cl)c3)CC2)c2c1ccc1scnc21 (racemic) [Example 34, (+/−)(E)-1-(3-(3,4-dichlorophenyl)allyl)-N-((tetrahydrofuran-2-yl)methyl)spiro[piperidine-4,8′-thiazolo[4,5-e]indole]-6′(7′H)-carboxamide] | 467 | 100 | 3.3 |  |  |  |
| O=C(NCC1CCOC1)N1CC2(CCN(C/C=C/c3ccc(Cl)c(Cl)c3)CC2)c2c1ccc1scnc21 (racemic) [Example 35, (+/−)(E)-1-(3-(3,4-dichlorophenyl)allyl)-N-((tetrahydrofuran-3-yl)methyl)spiro[piperidine-4,8′-thiazolo[4,5-e]indole]-6′(7′H)-carboxamide] | 731 | 100 | 3.3 |  |  |  |
| COc1ccc(/C=C/CN2CCC3(CC2)CN(C(=O)NCc2ccnc(Cl)c2)c2ccc(F)cc23)cc1 [Compound X6, reference compound] |  |  |  | 0.6 |  |  |
| O=C(NCc1ccnc(Cl)c1)N1CC2(CCN(C/C=C/c3ccc(Cl)c(Cl)c3)CC2)c2cc3c(cc21)COC3 [Example 1, (E)-N-((2-chloropyridin-4-yl)methyl)-1′-(3-(3,4-dichlorophenyl)allyl)-5,7-dihydrospiro[furo[3,4-f]indole-3,4′-piperidine]-1(2H)-carboxamide] | 70 | 1 |  |  |  |  |
| O=C(NCc1ccnc(F)c1)N1CC2(CCN(C/C=C/c3ccc(Cl)cc3)CC2)c2cc3c(cc21)COC3 [Example 2, (E)-1′-(3-(4-chlorophenyl)allyl)-N-((2-fluoropyridin-4-yl)methyl)-5,7-dihydrospiro[furo[3,4-f]indole-3,4′-piperidine]-1(2H)-carboxamide] | 321 | 18.2 | 10 |  |  |  |
| O=C(NCc1cnc(Cl)s1)N1CC2(CCN(C/C=C/c3ccc(Cl)cc3)CC2)c2cc3c(cc21)COC3 [Example 3, (E)-1′-(3-(4-chlorophenyl)allyl)-N-((2-chlorothiazol-5-yl)methyl)-5,7-dihydrospiro[furo[3,4-f]indole-3,4′-piperidine]-1(2H)-carboxamide] | 31.2 |  |  |  | 3.3 | 5.7 |
| O=C(NCc1ccnc(Cl)c1)N1CC2(CCN(C/C=C/c3ccc(F)cc3)CC2)c2cc3c(cc21)COC3 [Example 4, (E)-N-((2-chloropyridin-4-yl)methyl)-1′-(3-(4-fluorophenyl)allyl)-5,7-dihydrospiro[furo[3,4-f]indole-3,4′-piperidine]-1(2H)-carboxamide] | 78.7 |  |  |  | 10 | 10 |
| N#Cc1ccc(/C=C/CN2CCC3(CC2)CN(C(=O)NCc2ccnc(Cl)c2)c2cc4c(cc23)COC4)cc1 [Example 5, (E)-N-((2-chloropyridin-4-yl)methyl)-1′-(3-(4-cyanophenyl)allyl)-5,7-dihydrospiro[furo[3,4-f]indole-3,4′-piperidine]-1(2H)-carboxamide] | 70.1 | 33 | 10 |  |  |  |
| O=C(NCc1ccnc(Cl)c1)N1CC2(CCN(C/C=C/c3ccc(Cl)cc3)CC2)c2cc3c(cc21)OCO3 [Example 6, (E)-1-(3-(4-chlorophenyl)allyl)-N-((2-chloropyridin-4-yl)methyl)spiro[piperidine-4,7′-[1,3]dioxolo[4,5-f]indole]-5′(6′H)-carboxamide] | 35.4 |  |  |  | 3.3 | 10 |
| CC1(C)Oc2cc3c(cc2O1)C1(CCN(C/C=C/c2ccc(Cl)c(Cl)c2)CC1)CN3C(=O)NCc1ccnc(Cl)c1 [Example 7, (E)-N-((2-chloropyridin-4-yl)methyl)-1-(3-(3,4-dichlorophenyl)allyl)-2′,2′-dimethylspiro[piperidine-4,7′-[1,3]dioxolo[4,5-f]indole]-5′(6′H)-carboxamide] | 516 |  |  |  | 100 | 10 |
| CC1(C)Oc2cc3c(cc2O1)C1(CCN(C/C=C/c2ccc(Cl)cc2)CC1)CN3C(=O)NCc1ccnc(Cl)c1 [Example 8, (E)-1-(3-(4-chlorophenyl)allyl)-N-((2-chloropyridin-4-yl)methyl)-2′,2′-dimethylspiro[piperidine-4,7′-[1,3]dioxolo[4,5-f]indole]-5′(6′H)-carboxamide] | 1520 |  |  |  | 100 | 10 |
| O=C(NCc1ccnc(Cl)c1)N1CC2(CCN(C/C=C/c3ccc(Cl)c(Cl)c3)CC2)c2cc3c(cc21)OCCO3 [Example 9, (E)-N-((2-chloropyridin-4-yl)methyl)-1-(3-(3,4-dichlorophenyl)allyl)-2′,3′-dihydrospiro[piperidine-4,8′-[1,4]dioxino[2,3-f]indole]-6′(7′H)-carboxamide] | 62.8 | 33 | 10 |  |  |  |
| O=C(NCc1ccnc(Cl)c1)N1CC2(CCN(C/C=C/c3ccc(Cl)c(Cl)c3)CC2)c2c1ccc1c2OCCO1 [Example 11, (E)-N-((2-chloropyridin-4-yl)methyl)-1-(3-(3,4-dichlorophenyl)allyl)-2′,3′-dihydrospiro[piperidine-4,9′-[1,4]dioxino[2,3-e]indole]-7′(8′H)-carboxamide] | 178 | 100 | 10 |  |  |  |
| O=C(NCc1ccnc(Cl)c1)N1CC2(CCN(C/C=C/c3ccc(Cl)c(Cl)c3)CC2)c2cc3c(cc21)CCC3 [Example 12, (E)-N-((2-chloropyridin-4-yl)methyl)-1′-(3-(3,4-dichlorophenyl)allyl)-2,5,6,7-tetrahydro-1H-spiro[cyclopenta[f]indole-3,4′-piperidine]-1-carboxamide] | 56.3 |  |  |  | 2.2 | 10 |
| O=C(NCc1ccncc1)N1CC2(CCN(C/C=C/c3ccc(Cl)c(Cl)c3)CC2)c2c1ccc1scnc21 [Example 13, (E)-1-(3-(3,4-dichlorophenyl)allyl)-N-(pyridin-4-ylmethyl)spiro[piperidine-4,8′-thiazolo[4,5-e]indole]-6′(7′H)-carboxamide] | 379 | 100 | 10 |  |  |  |
| O=C(NCc1ncccn1)N1CC2(CCN(C/C=C/c3ccc(Cl)c(Cl)c3)CC2)c2c1ccc1scnc21 [Example 14, (E)-1-(3-(3,4-dichlorophenyl)allyl)-N-(pyrimidin-2-ylmethyl)spiro[piperidine-4,8′-thiazolo[4,5-e]indole]-6′(7′H)-carboxamide] | 721 | 100 | 10 |  |  |  |
| O=C(NCc1ccccc1)N1CC2(CCN(C/C=C/c3ccc(Cl)c(Cl)c3)CC2)c2c1ccc1scnc21 [Example 15, (E)-N-benzyl-1-(3-(3,4-dichlorophenyl)allyl)spiro[piperidine-4,8′-thiazolo[4,5-e]indole]-6′(7′H)-carboxamide] | 610 | 100 | 4.4 |  |  |  |
| O=C(NCc1ccc(F)cc1)N1CC2(CCN(C/C=C/c3ccc(Cl)c(Cl)c3)CC2)c2c1ccc1scnc21 [Example 16, (E)-1-(3-(3,4-dichlorophenyl)allyl)-N-(4-fluorobenzyl)spiro[piperidine-4,8′-thiazolo[4,5-e]indole]-6′(7′H)-carboxamide] | 7340 | 100 | 3.3 |  |  |  |
| O=C(NCc1ccc([N+](=O)[O-])cc1)N1CC2(CCN(C/C=C/c3ccc(Cl)c(Cl)c3)CC2)c2c1ccc1scnc21 [Example 17, (E)-1-(3-(3,4-dichlorophenyl)allyl)-N-(4-nitrobenzyl)spiro[piperidine-4,8′-thiazolo[4,5-e]indole]-6′(7′H)-carboxamide] | 11600 | 100 | 10 |  |  |  |
| O=C(NCc1ccc(O)cc1)N1CC2(CCN(C/C=C/c3ccc(Cl)c(Cl)c3)CC2)c2c1ccc1scnc21 [Example 18, (E)-1-(3-(3,4-dichlorophenyl)allyl)-N-(4-hydroxybenzyl)spiro[piperidine-4,8′-thiazolo[4,5-e]indole]-6′(7′H)-carboxamide] | 2220 | 100 | 43.5 |  |  |  |
| COc1nc2ccccc2cc1CN1CCC2(CC1)CN(C(=O)NCc1ccnc(Cl)c1)c1ccc(Cl)cc12 [Example 134, 5-chloro-N-((2-chloropyridin-4-yl)methyl)-1′-((2-methoxyquinolin-3-yl)methyl)spiro[indoline-3,4′-piperidine]-1-carboxamide] | 34.9 |  |  |  | 2 |  |
| CN(Cc1ccnc(Cl)c1)C(=O)N1CC2(CCN(C/C=C/c3ccc(Cl)cc3)CC2)c2cc(Cl)ccc21 [Example 188, (E)-5-chloro-1′-(3-(4-chlorophenyl)allyl)-N-((2-chloropyridin-4-yl)methyl)-N-methylspiro[indoline-3,4′-piperidine]-1-carboxamide] | 172 | 2 |  |  |  |  |
